Consider 2 molecules from US10933064B2, “Crystalline forms of 5-bromo-2,6-di(1H-pyrazol-1-yl)pyrimidin-4-amine and new salts” (Novartis AG, priority 2017, dated 2021).

Converted amounts (≈) assume the structure as drawn.

Series [1] can be described thus: Stability when blended with excipients. In kind it is physicochemical. The conditions noted are these: four excipients (gelatin, HPMC, wet granulation mixture, dry blended mixture), 50° C./75% RH.
Series [2] in a line: Solubility in aqueous buffers and bio-relevant media. The conditions noted are these: the salt dissociates.
Series [3] in a line: Intrinsic dissolution rate. In kind it is physicochemical.
Series [4] can be described thus: Hygroscopicity, water sorption-desorption isotherm (DVS). In kind it is physicochemical. The source says:
Crystalline form F is non-hygroscopic.

The conditions of series [5]: 1 week.
The conditions of series [6]: 1 week, 0.1 %, pH 1.2.
The next series can be described thus: physchem. The conditions noted are these: aqueous buffer.
A short description of series [7]: Phase change on exposure to humidity. The class given is physicochemical.
Series [8] is described as follows: Physical stability on compression (XRPD). In kind it is physicochemical. Conditions: 5 minutes at 0.5 ton, 0.8 cm diameter disc. As for the experimental part:
The crystallinity of form F was evaluated by XRPD after compression for 5 minutes at 0.5 ton with 0.8 cm diameter disc.

A short description of series [9]: Thermal stability of the crystalline form on heating and cooling (XRPD). The conditions noted are these: heating to 220° C. (melt) then cooling to 30° C. In kind it is physicochemical.
The nature of series [10]: Granulation simulation experiments (XRPD, DSC). In kind it is physicochemical. Conditions: ground at 25° C. As for the experimental part:
The physical stability of crystalline form F was also evaluated in granulation simulation experiments. In these experiments granulating solvent was added dropwise to the crystalline form F until the solid is wetted sufficiently. The mixture was then ground in a mortar/pestle at room temperature (25° C. for 2-3 minutes) between each addition. The crystallinity of the material (post-grinding) was re-evaluated by XRPD and DSC.

In the case of `Nc1nc(-n2cccn2)nc(-n2cccn2)c1Br` [Form C, 5-bromo-2,6-di(1H-pyrazol-1-yl)pyrimidin-4-amine], the “degradation when blended with excipients” value in [1] is on record as “about 1%”. Also, in series [2], the “solubility compared with free form F” value is given as “does not show any better solubility than the free form F”. Further, the intrinsic dissolution in series [3] (0.01N HCl pH=2) was 0.0592 mg/cm^2/min; in [3] (acetate buffer pH 4.7), 0.0264 mg/cm^2/min; in series [3] (phosphate buffer pH 6.8), 0.0277 mg/cm^2/min. Besides, the hygroscopicity result in [4] (relative humidity above 70%) was “very hygroscopic”.
Regarding `Nc1nc(-n2cccn2)nc(-n2cccn2)c1Br` [Form F, 5-bromo-2,6-di(1H-pyrazol-1-yl)pyrimidin-4-amine], the degradation in bulk entry in [5] is listed as “less than 1%”. Besides, in series [6], the “degradation in buffer solution” value is reported as 1%. In series [6], the “degradation in buffer solutions” value is “less than 0.5%”. Further, the intrinsic dissolution amounted to 0.0115 mg/cm^2/min in series [3] (0.01N HCl pH=2, listed as form F); 0.0085 mg/cm^2/min in [3] (acetate buffer pH 4.7, listed as form F); 0.0084 mg/cm^2/min in series [3] (phosphate buffer pH 6.8, listed as form F). This molecule registered a solubility in the series “physchem” of roughly 100 µg/mL (≈ 327 µM). Moreover, the “phase change on exposure to humidity” value in [7] is recorded as “little to no phase change”. Besides, in series [8], the “form change after compression” value was “no form change”. The “crystalline form after heating and cooling” value in [9] is listed as “remains unchanged”. In addition, the “form change after granulation simulation” value in [10] (ethanol as granulation solvent) and in series [10] (water as granulation solvent) was “no form change” each time. Further, the hygroscopicity entry in series [4] (DVS, 25° C.) was “non-hygroscopic”. Also, the moisture absorbed result in series [4] (DVS, up to 90% relative humidity, 25° C.) was “less than 0.2%”.
